In patent US20120171123A1, “USES AND COMPOSITIONS FOR TREATMENT OF RHEUMATOID ARTHRITIS” (priority 2006, published 2012):

What was measured:
[1] = system: patients with long-standing RA who had inadequate responses to MTX; test: Study 1: serious adverse events
Description: Periodic ACR component evaluations were also performed throughout the study. Outcome measures included the following: Total Sharp Score (TSS), including joint erosions (JE) and joint space narrowing (JSN); ACR20, ACR50, and ACR70 response rates; and individual components of ACR responses criteria, including swollen joint count (SJC) and tender joint count (TJC). Efficacy and safety evaluations were conducted at regularly scheduled visits.

patients with RA = test: RAPID (routine Apgar-like patient index datasheet) score in 4 adalimumab clinical trials; type: in vivo, human; settings: for RAPID (R326), Difference: baseline vs endpoint
Description: All 1,391 patients in these trials were evaluated in this study. The RAPID index is based on patient self-report data on a Health Assessment Questionnaire (HAQ), recalibrated to 0-10, based on the following criteria: physical function (0-3): 0=0-0.25, 1=0.26-0.75, 2=0.76-1.5, and 3=1.51-3.0; pain visual analog scale (VAS) (0-3): 0=0-10, 1=11-30, 2=31-60, and 3=61-100; and patient's global status VAS (0-4): 0=0-10, 1=11-25, 2=26-50, 3=51-75, and 4=76-100. All patients were classified at baseline as having a DAS28<5.1 or ≧5.1 or RAPID <5.0 or ≧5.0, the higher values for each indicating severe disease. DAS28 was calculated using swollen joint count, tender joint count, patient's global assessment of disease activity and C-reactive protein (CRP) concentration. Spearman rank correlations and box plots to compare RAPID scores with DAS28 were also analyzed.
Several rescalings of the physical function, pain, and patient's global assessment scales were calculated. The physical function scale is scored 0-3, and was rescaled to 0-3. The pain visual analog scale (VAS) is scored 0-10 and was also rescaled to 0-3. The global VAS is scored 0-10 and was rescaled to 0-4. Thus, the total of the 3 scores ranges from 0-10. Scores were calculated for both continuous and categorical indices. The DAS28 was calculated from the SJC, TJC, patient's global score, and C-reactive protein.

[2] = system: patients with long-standing RA; test: Study 4: HAQ disability index; type: in vivo, human
Description: Efficacy outcomes were evaluated as observed data: DAS28; ACR 20/50/70; Tender Joint Count (TJC); Swollen Joint Count (SJC); and HAQ Disability Index. Baseline demographics and disease characteristics were similar in both Study 4 and Study 5 consistent with moderate to severe RA, as shown below in Table 64: […]

[3] = blinded-controlled and OLE periods
[4] = Study 2 (adalimumab monotherapy)
[5] = Study K (adalimumab with other DMARDs)

For “adalimumab: human anti-TNF mAb (HUMIRA, Abbott Laboratories), described in U.S. Pat. No. 6,090,382 as D2E7”, the Demyelinating disease [1, 3] was 0.2 events/100-PY, the Histoplamosis [1, 3] was 0.2 events/100-PY and the Tuberculosis [1, 3] was 0.2 events/100-PY. It also gave a Demyelinating disease ([1]; blinded-controlled period) of 0.3 events/100-PY, a Histoplamosis ([1]; blinded-controlled period) of 0.3 events/100-PY and a Tuberculosis ([1]; blinded-controlled period) of 0.3 events/100-PY. For the same substance, the Lymphoma ([1]; in vivo) was 0.3 events/100-PY, the Urinary tract infections ([1]; in vivo) was 0.3 events/100-PY and the “RAPID (R326), Endpoint” value (patients with RA; Study 1 (adalimumab with MTX)) was 3.86. The “RAPID (R326), Difference” value (patients with RA; Study 1 (adalimumab with MTX)) was 3.22, the “RAPID (R326), Endpoint” value (patients with RA; [4]) was 5.88 and the “RAPID (R326), Difference” value (patients with RA; [4]) was 2.70. For the same substance, the “RAPID (R326), Endpoint” value (patients with RA; Study I (adalimumab with MTX)) was 3.84, the “RAPID (R326), Difference” value (patients with RA; Study I (adalimumab with MTX)) was 3.43 and the “RAPID (R326), Endpoint” value (patients with RA; [5]) was 4.22. For the same substance, the “RAPID (R326), Difference” value (patients with RA; [5]) was 2.79, the “HAQ, % change of mean clinical improvement from baseline” value (“HAQ, % change” for short) ([2]; 6 months) was 45% and the “HAQ, % change” value ([2]; 12 months) was 43%. The “HAQ, % change” value ([2]; 24 months) was 47%, the “HAQ, % change” value ([2]; 36 months) was 47% and the “HAQ, % change” value ([2]; 48 months) was 50%.
